According to paper PMC12186257, “Serendipitous and Systematic Chemoproteomic Discovery of MBLAC2, HINT1, and NME1‑4 Inhibitors from Histone Deacetylase-Targeting Pharmacophores” (ACS Chemical Biology, 2025):
Like-named read-outs stand apart in the source and are kept apart here.

Legend:
[1] = tested on: compound-binding proteins such as HDACs, MBLAC2, ISOC1/2, ALDH2, and GATD3A; assay: chemoproteomic competition assay, proteome-wide target binding profile; parameters: species or system human; conditions: dose-dependent competition
Experimental: (§1) MBLAC2 is a metalloenzyme predicted to harbor one or two Zn^2+ ions in its active site. […] In this assay, compounds of interest are incubated at increasing concentrations with a mixture of lysates of MV4–11 and SW620 cells. The compound-treated lysates are then mixed with bead-immobilized hydroxamic acid-containing compounds iA, iC, and iQ (immobilized Quisinostat), which pull down compound-binding proteins such as HDACs, MBLAC2, ISOC1/2, ALDH2, and GATD3A (Figure a) that can be identified and quantified by mass spectrometry (MS). Proteins targeted by the library compounds in a preincubation step are prevented from being pulled down by the immobilized probes, leading to a dose-dependent reduction in MS signal. Initially, 12 metal-chelating compounds were profiled at two concentrations (10 μM and 100 μM) (Figure S3).
(§2) Chemoproteomic competition assays
Sample preparation. For the MBLAC2 and HDAC inhibitor competition assay, the generation of affinity matrices, lysate generation, pulldown assay, and sample preparation were performed as described in detail in REF1. For the kinobeads assay, the generation of affinity matrices, lysate generation, pulldown assay, and sample preparation were performed as described in detail in REF2.
(§3) LC-MS/MS. The different sample types were measured with different LC-MS/MS settings. MBLAC2 2-dose competition assays were measured with the Lumos1 setup, MBLAC2 9-dose competition assays were measured with the Lumos2 setup, and kinobeads assays were measured with the Eclipse setup.
Peptides were analyzed via LC–MS/MS on a Dionex Ultimate3000 nano HPLC coupled to either one of two Orbitrap Fusion Lumos mass spectrometers, or to an Orbitrap Eclipse mass spectrometer, operated via the Thermo Scientific Xcalibur software.
In the all setups, peptides were loaded on a trap column (100 μm × 2 cm, packed in-house with Reprosil-Gold C18 ODS-3 5 μm resin, Dr. Maisch, Ammerbuch) and washed with 5 μL/min solvent A (0.1% formic acid in HPLC grade water) for 10 min. Peptides were then separated on an analytical column (75 μm × 40 cm, packed in-house with Reprosil-Gold C18 3μm resin, Dr. Maisch, Ammerbuch) using a 50 min gradient ranging from 4 to 32% solvent B (0.1% formic acid, 5% DMSO in acetonitrile) in solvent A (0.1% formic acid, 5% DMSO in HPLC grade water) at a flow rate of 300 nL/min.
The mass spectrometers were operated in data-dependent mode, automatically switching between MS1 and MS2 spectra. MS1 spectra were acquired over a mass-to-charge (m/z) range of 360–1300 m/z at a resolution of 60,000 (at m/z 200) in the Orbitrap using a maximum injection time of 50 ms and an automatic gain control (AGC) target value of 4e5.
In Lumos settings, up to 12 peptide precursors were isolated in (isolation width of 1.2 Th for Lumos1 and 1.7 for Lumos2, maximum injection time of 75 ms, AGC value of 1e5 for Lumos1 and 2e5 for Lumos2), fragmented by HCD using 30% normalized collision energy (NCE) and analyzed in the Orbitrap at a resolution of 15,000 (Lumos2) or 30,000 (Lumos1). The dynamic exclusion duration of fragmented precursor ions was set to 20 s (Lumos1) or 30 s (Lumos2). In Eclipse measurements, a cycle time of 2 s was chosen. Peptides were isolated in the quadrupole with an isolation offset of 1.2 (isolation width of 1.2 Th, maximum injection time of 54 ms, AGC target of 200%) and fragmented by […]

SW620 cells = assay: SW620 confluency and metabolic activity (Alamar blue assay); format: cell-based; conditions: Homo sapiens, SW-620
[2] = molecular target: casein kinase 2 (CK2) complex proteins (CSNK2A1/3, CSNK2A2, CSNK2B, EIF3J); assay: Kinobead competition assay; format: binding, human; conditions: dose-dependent competition
Description: The binding of KV-24 and KV-30 to the nucleotide-binding pocket raises the question of whether these compounds also target other nucleotide-binding proteins, such as kinases. To evaluate potential off-target effects, we performed Kinobead competition assays. This chemoproteomic approach is conceptually very similar to the one used here in that broad spectrum kinase inhibitors are immobilized on beads. […] PDE1C is a cAMP/cGMP nucleotide-binding protein that features two divalent metal cation cofactors. The hydroxamic acid moiety of KV-24 might chelate these metal cofactors, supporting the hypothesis that KV-24 binds the active site of PDE1C. […]
Given that local GTP production by NME1 and NME2 is essential for fueling dynamin-driven endocytosis, we investigated the effect of KV-50-mediated NME1/2 inhibition on fluorescent transferrin (TF) uptake in cells. HeLa cells were treated with KV-50 or known endocytosis inhibitors (Pitstop-2 and Dynasore), and surface-bound and internalized fluorescent TF were quantified. […]
LC-MS/MS. The different sample types were measured with different LC-MS/MS settings. MBLAC2 2-dose competition assays were measured with the Lumos1 setup, MBLAC2 9-dose competition assays were measured with the Lumos2 setup, and kinobeads assays were measured with the Eclipse setup. […]

HeLa cells = assay: clathrin-mediated endocytosis of fluorescently labeled transferrin; format: cell-based
Experimental: To test this hypothesis, we measured clathrin-mediated endocytosis of fluorescently labeled transferrin (TF) in the presence and absence of MBLAC2 inhibitors.
CME of transferrin and confocal microscopy analyses.For transferrin uptake experiments HeLa cells were seeded on Matrigel-coated coverslips, and incubated with 0.1 % DMSO, or with 100 µM dynasore, 20 µM KV50, 2 µM KV65, or 2 µM KV79 in media containing 10% FCS at 37°C for 20 h.

recombinant NME1–4 = assay: nucleoside diphosphate kinase activity assay (ATP production from ADP and GTP, Kinase-GLO); format: biochemical; conditions: ADP (150 μM) and GTP (150 μM); range over all four enzymes; read-out: EC50 inhibition of NME1–4
Experimental: To evaluate whether KV-50 binding affects NME activity, we performed enzyme activity assays using recombinant NME1–4. The assay measured NME-catalyzed production of ATP from ADP (150 μM) and GTP (150 μM).
Nucleotide diphosphate kinase activity assays. The phosphotransfer activity of the NDPKs (NME1-4) was measured in a reaction mixture containing buffer A (20 mM Tris-HCl pH 8.0, 150 mM NaCl, and 1 mM MgCl2). All the samples were pipetted in replicates on a 384 well plate. One volume of the respective NDPK protein solution (NME1-4) was added from stock proteins (diluted in buffer a to a concentration of 300 pM) to the wells in four replicates. To these wells, one volume of the inhibitors (Six dilutions were prepared, starting with a 30 µM stock solution and then performing three-fold serial dilutions) was added and incubated at room temperature for 30 minutes. Then, one volume of the substrate mixture (300 μM GTP and 30 μM ADP) was added to the protein-inhibitor mixture-containing wells and incubated at room temperature for 30 minutes. Finally, three volumes of the Kinase-GLO reagent (Promega V6711) containing an ATP-dependent firefly luciferase were added to all the wells and five minutes later, the luminescence was measured using a plate reader. Eight different concentrations of ATP (0 - 10 μM) were used as standards for a calibration curve to calculate the amount of ATP produced by the different NDPKs.

HDAC6 = molecular target: T1, HDAC6 (Homo sapiens, UniProt Q9UBN7); assay: chemoproteomic competition assay (MV4-11/SW620 lysate, iA/iC/iQ beads, MS readout); format: binding; conditions: two-dose (1 μM and 10 μM) assay
T1 construct: incubated at increasing concentrations with a mixture of lysates of MV4–11 and SW620 cells; endogenous in cells; host or cells: mixed lysate of MV4-11 and SW620 cells
T1 sequence (Q9UBN7 1-1215): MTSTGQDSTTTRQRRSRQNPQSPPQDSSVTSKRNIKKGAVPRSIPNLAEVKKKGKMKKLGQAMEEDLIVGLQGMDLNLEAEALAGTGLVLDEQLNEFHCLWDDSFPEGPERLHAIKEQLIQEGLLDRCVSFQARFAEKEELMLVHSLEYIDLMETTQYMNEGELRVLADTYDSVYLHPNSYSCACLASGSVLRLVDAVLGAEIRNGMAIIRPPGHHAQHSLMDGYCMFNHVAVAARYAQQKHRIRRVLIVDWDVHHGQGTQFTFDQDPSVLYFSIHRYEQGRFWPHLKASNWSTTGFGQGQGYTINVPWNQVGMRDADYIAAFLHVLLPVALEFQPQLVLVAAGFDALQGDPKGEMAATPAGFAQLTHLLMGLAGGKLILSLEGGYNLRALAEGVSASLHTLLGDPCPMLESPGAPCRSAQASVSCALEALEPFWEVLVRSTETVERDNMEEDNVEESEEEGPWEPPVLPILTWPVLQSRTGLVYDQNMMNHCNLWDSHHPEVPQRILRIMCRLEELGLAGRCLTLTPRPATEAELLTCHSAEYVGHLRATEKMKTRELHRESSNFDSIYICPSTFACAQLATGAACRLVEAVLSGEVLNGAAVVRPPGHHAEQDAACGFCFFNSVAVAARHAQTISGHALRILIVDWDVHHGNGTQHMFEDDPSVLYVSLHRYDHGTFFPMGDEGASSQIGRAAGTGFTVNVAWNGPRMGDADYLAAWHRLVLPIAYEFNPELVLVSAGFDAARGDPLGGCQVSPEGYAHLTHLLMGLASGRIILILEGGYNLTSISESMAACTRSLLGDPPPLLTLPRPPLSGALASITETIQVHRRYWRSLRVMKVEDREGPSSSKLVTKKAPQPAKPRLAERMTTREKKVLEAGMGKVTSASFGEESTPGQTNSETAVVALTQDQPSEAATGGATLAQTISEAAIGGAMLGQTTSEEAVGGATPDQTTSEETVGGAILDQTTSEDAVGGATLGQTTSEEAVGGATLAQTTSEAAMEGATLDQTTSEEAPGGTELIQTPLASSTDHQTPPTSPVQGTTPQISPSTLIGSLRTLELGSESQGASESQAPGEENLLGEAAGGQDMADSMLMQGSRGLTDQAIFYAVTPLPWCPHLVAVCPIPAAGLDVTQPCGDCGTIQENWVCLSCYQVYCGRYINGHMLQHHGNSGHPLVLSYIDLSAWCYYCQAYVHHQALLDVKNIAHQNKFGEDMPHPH
Experimental: as §1, with “Initially, 12 metal-chelating compounds were profiled at two concentrations (10 μM and 100 μM) (Figure S3).” left out
as §2
(§4) Sample preparation. […]
as §3
(§5) Peptides were analyzed via LC–MS/MS on a Dionex Ultimate3000 nano HPLC coupled to either one of two Orbitrap Fusion Lumos mass spectrometers, or to an Orbitrap Eclipse mass spectrometer, operated via the Thermo Scientific Xcalibur software. […]

MBLAC2 = molecular target: T2, MBLAC2 (Homo sapiens, UniProt Q68D91); assay: as above; format: binding; conditions: two-dose (1 μM and 10 μM) assay
T2 construct: incubated at increasing concentrations with a mixture of lysates of MV4–11 and SW620 cells; endogenous in cells; host or cells: mixed lysate of MV4-11 and SW620 cells
T2 sequence (Q68D91 1-279): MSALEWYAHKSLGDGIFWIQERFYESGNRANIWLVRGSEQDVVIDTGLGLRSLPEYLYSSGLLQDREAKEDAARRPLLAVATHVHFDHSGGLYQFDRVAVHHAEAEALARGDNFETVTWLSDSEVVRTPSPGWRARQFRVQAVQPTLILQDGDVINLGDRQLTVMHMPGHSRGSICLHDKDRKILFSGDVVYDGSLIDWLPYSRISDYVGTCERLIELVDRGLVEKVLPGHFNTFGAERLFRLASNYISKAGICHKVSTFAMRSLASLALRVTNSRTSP

NMEs = conditions: free nonacetylated Quisinostat; prior competition experiments; cited from earlier work
ISOC1 = molecular target: T3, ISOC1 (Homo sapiens, UniProt Q96CN7); assay: chemoproteomic competition assay (MV4-11/SW620 lysate, iA/iC/iQ beads, MS readout); format: binding; conditions: nine-dose competition assay
T3 construct: incubated at increasing concentrations with a mixture of lysates of MV4–11 and SW620 cells; endogenous in cells; host or cells: mixed lysate of MV4-11 and SW620 cells
T3 sequence (Q96CN7 1-298): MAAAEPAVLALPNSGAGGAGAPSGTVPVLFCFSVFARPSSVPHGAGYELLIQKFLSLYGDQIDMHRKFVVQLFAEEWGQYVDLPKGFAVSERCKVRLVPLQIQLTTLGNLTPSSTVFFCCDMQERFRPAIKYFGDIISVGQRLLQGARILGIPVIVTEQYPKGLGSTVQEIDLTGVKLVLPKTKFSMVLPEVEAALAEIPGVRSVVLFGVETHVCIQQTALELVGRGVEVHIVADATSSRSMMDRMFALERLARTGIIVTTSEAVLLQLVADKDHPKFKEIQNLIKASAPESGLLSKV
Experimental: as §1, §2, §4, §3, §5
In Lumos settings, up to 12 peptide precursors were isolated in (isolation width of 1.2 Th for Lumos1 and 1.7 for Lumos2, maximum injection time of 75 ms, AGC value of 1e5 for Lumos1 and 2e5 for Lumos2), fragmented by HCD using 30% normalized collision energy (NCE) and analyzed in the Orbitrap at a resolution of 15,000 (Lumos2) or 30,000 (Lumos1). […] Peptides were isolated in the quadrupole with an isolation offset of 1.2 (isolation width of 1.2 Th, maximum injection time of 54 ms, AGC target of 200%) and fragmented by HCD with an NCE of 30% and analyzed in the Orbitrap at a resolution of 30,000. […]

## Cl.O=C(NO)c1ccc(-c2nc3ccccc3c3[nH]c4ccccc4c23)cc1 [KV-50]
[1]
  targets / off-targets bound: bound to HINT1 and NME4
SW620 cells; SW620, Alamar blue, read-out: concentration decreasing metabolic activity by 50%
  IC50: 3.6 µM
SW620 cells; read-out: concentration reducing SW620 cell confluency by 50%
  IC50: 0.87 µM
[2]
  EC50: 1 to 2 µM
HeLa cells; HeLa cells under TF assay conditions, similar in SW-620 and HEK293T
  morphological changes: rounding and swelling of cells
HeLa cells; HeLa cells, 20 µM, 20 h
  ratio of internalized TF to surface-bound TF: reduced ratio of internalized TF to surface-bound TF
Recombinant NME1–4
  EC50: 2 to 5 µM

## CC(=O)c1ccc(CN2c3ccccc3Sc3ccccc32)cc1 [MM-20]
HDAC6
  concentration up to which no binding to HDAC6: > 10 µM
MBLAC2
  concentration up to which no binding to MBLAC2: > 10 µM

## Cn1cc(CNCC2CCN(c3ncc(C(=O)NO)cn3)CC2)c2ccccc21 [Quisinostat]
NMEs
  concentration up to which no binding to NMEs: > 30 µM

## COc1ccc(N(C)c2nc(C)nc3ccccc23)cc1OCCCC(=O)NO [SKLB-23bb]
ISOC1
  EC50: 5.6 µM
